Experimental findings from US20230022575A1, “BACTERIAL CONJUGATIVE SYSTEM AND THERAPEUTIC USES THEREOF” (SOCIÉTÉ DE COMMERCIALISATION DES PRODUITS DE LA RECHERCHE …, priority 2018, published 2023) are described below.

≈ marks a conversion by molar mass, not a printed value.

In one test the test system is EcN. Kind of test: Minimal inhibitory concentration (MIC) of EcN strains. In kind it is cell-based, Escherichia coli Nissle 1917. The following applies: Escherichia coli; strain EcN.
The next test concerns KN01. The test is described as above. In kind it is cell-based, Escherichia coli Nissle 1917. To be noted: Escherichia coli, read-out: Minimal inhibitory concentration (MIC).
A further test deals with KN02. The description is as above. In kind it is cell-based, Escherichia coli Nissle 1917. The following applies: Escherichia coli, read-out: Minimal inhibitory concentration (MIC).
In test [1] the test system is endogenous Enterobacteriaceae. Kind of test: Streptomycin treatment and EcN (KN01) colonization of the murine gut. Format: in vivo, mouse. To be noted: 1 g/L of Sm in drinking water, mice. The method, then:
FIGS. 3.A to G. Streptomycin (Sm) treatment improves mouse gut colonization by Escherichia coli Nissle 1917 (EcN). The ability of different Sm concentrations to deplete endogenous Enterobacteriaceae (white area) and to promote EcN colonization (gray area) was evaluated by quantifying CFU in feces from mice treated with 0 mg/L (FIG. 3.A), 50 mg/L (FIG. 3.B), 100 mg/L (FIG. 3.C), 250 mg/L (FIG. 3.D), 450 mg/L (FIG. 3.E) and 1000 mg/L (FIG. 3.F) in drinking water starting at day −2. The colonization levels of KN01 in several sections of the intestinal tract of untreated (0) and streptomycin-treated ( ) mice was evaluated (FIG. 3.G). […]
Mouse model. All mice-related protocols were designed in compliance with our institution Animal Care Comity Guidelines and were strictly evaluated to avoid animal suffering. […] Animal weight and health was monitored daily throughout each experiment. […] For Sm treated mice groups, Sm working concentration was first evaluated to maximize Enterobacteriaceae clearance and EcN colonization (Kotula et al., 2014). […] Bacterial load was monitored in feces sampling at specified time points. […] Animals were then dissected to reveal the colonization pattern and gut bacterial content was evaluated by CFU. […]
Feces and tissues processing. […] CFUs/mg sample were calculated as a function of the sample measured weight. […]

For `CN[C@@H]1[C@H](O)[C@H](NC)[C@H]2O[C@@]3(O)C(=O)C[C@@H](C)O[C@H]3O[C@@H]2[C@H]1O` [Sp, spectinomycin], the MIC in the test with EcN was determined as 50 µg/mL (≈ 150 µM); in the test on KN01, 3000 µg/mL (≈ 9030 µM).
As for `CC1(C)S[C@@H]2[C@H](NC(=O)[C@H](N)c3ccccc3)C(=O)N2[C@H]1C(=O)O` [Ap, ampicillin], the MIC against EcN, with KN01 and in the test on KN02 was under 25 µg/mL each time.
Consider `[H]/N=C(/N)N[C@H]1[C@H](O)[C@@H](O)[C@H](O[C@@H]2O[C@@H](C)[C@](O)(C=O)[C@H]2O[C@@H]2O[C@@H](CO)[C@H](O)[C@@H](O)[C@@H]2NC)[C@@H](N/C(N)=N\[H])[C@@H]1O` [Sm, streptomycin], for which the MIC against EcN was 25 µg/mL (≈ 43 µM); in the test on KN01, 800 µg/mL (≈ 1380 µM); in the test on KN02, over 1600 µg/mL. Further, the “Enterobacteriaceae clearance and KN01 colonization” value in test [1] was “cleared Enterobactericeae while allowing stable colonization of the KN01 strain”.
`O=C(N[C@H](CO)[C@H](O)c1ccc([N+](=O)[O-])cc1)C(Cl)Cl` [Cm, chloramphenicol]: the MIC against EcN was under 8 µg/mL; in the test with KN01 it was under 8 µg/mL; in the test with KN02, 264 µg/mL (≈ 817 µM).
